Biological target: T1, recombinant sEH (Homo sapiens, UniProt P34913)
T1 construct: made in house; host or cells: Sf9 insect cells
T1 sequence (P34913 1-555): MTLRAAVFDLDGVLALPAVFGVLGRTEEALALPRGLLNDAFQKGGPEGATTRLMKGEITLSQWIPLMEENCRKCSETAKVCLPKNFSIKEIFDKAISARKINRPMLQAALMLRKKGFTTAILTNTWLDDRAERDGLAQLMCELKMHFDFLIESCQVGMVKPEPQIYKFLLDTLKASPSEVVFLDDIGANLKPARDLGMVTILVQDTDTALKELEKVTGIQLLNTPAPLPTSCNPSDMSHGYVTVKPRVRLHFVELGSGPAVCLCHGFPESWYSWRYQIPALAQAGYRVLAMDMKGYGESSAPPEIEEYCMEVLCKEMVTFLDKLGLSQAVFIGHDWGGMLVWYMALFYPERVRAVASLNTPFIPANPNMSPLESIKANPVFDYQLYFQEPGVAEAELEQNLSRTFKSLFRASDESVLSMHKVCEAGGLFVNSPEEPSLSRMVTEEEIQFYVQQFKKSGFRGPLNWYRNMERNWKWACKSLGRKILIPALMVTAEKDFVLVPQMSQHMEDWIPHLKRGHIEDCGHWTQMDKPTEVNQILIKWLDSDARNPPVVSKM
Assay: biochemical screening assay for inhibition of soluble epoxide hydrolase (fluorometric, Phome substrate)
Summary of the method: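 Human sEH from Sf9 cells (2 nM final) was pre-incubated 15 min at 30 °C with compound (0.0001–10 μM), then reacted 60 min at 30 °C with 5 μM Phome in 25 mM Hepes/0.01% albumin. Fluorescence of released 6-methoxy-2-naphthaldehyde was read before substrate and at end; IC50 from % inhibition.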

Going from `O=C(N[C@H]1CO[C@H]2[C@@H]1OC[C@@H]2Oc1ccc(F)cc1)N[C@H]1CCC[C@@H]1OCc1ccccc1` [Example 153, 1-((1S,2S)-2-Benzyloxy-cyclopentyl)-3-[(3S,3aR,6S,6aS)-6-(4-fluoro-phenoxy)-hexahydro-furo[3,2-b]furan-3-yl]-urea] to `O=C(N[C@H]1CO[C@H]2[C@@H]1OC[C@@H]2Oc1ccc(F)cc1)N[C@H]1CCCC[C@@H]1OCc1ccccc1` [Example 163, 1-((1S,2S)-2-Benzyloxy-cyclohexyl)-3-[(3S,3aR,6S,6aS)-6-(4-fluoro-phenoxy)-hexahydro-furo[3,2-b]furan-3-yl]-urea], the IC50 rises from 62 nM to 192 nM (3.1-fold). The first is the more potent here.

`CC[C@@H](NC(=O)N[C@H]1CO[C@H]2[C@@H]1OC[C@@H]2Oc1ccc(F)cc1)c1ccccc1` [Example 154, 1-[(3S,3aR,6S,6aS)-6-(4-Fluoro-phenoxy)-hexahydro-furo[3,2-b]furan-3-yl]-3-((R)-1-phenyl-propyl)-urea] and `C[C@H](NC(=O)N[C@H]1CO[C@H]2[C@@H]1OC[C@@H]2Oc1ccc(F)cc1)c1ccccc1` [Example 161, 1-[(3S,3aR,6S,6aS)-6-(4-Fluoro-phenoxy)-hexahydro-furo[3,2-b]furan-3-yl]-3-((S)-1-phenyl-ethyl)-urea] are within 1.5-fold of each other in IC50: 51 nM for the first, 47 nM for the second.

Going from `COc1cccc([C@@H](C)NC(=O)N[C@H]2CO[C@H]3[C@@H]2OC[C@@H]3Oc2ccc(F)cc2)c1` [Example 155, 1-[(3S,3aR,6S,6aS)-6-(4-Fluoro-phenoxy)-hexahydro-furo[3,2-b]furan-3-yl]-3-[(R)-1-(3-methoxy-phenyl)-ethyl]-urea] to `COc1ccc([C@H](C)NC(=O)N[C@H]2CO[C@H]3[C@@H]2OC[C@@H]3Oc2ccc(F)cc2)cc1` [Example 167, 1-[(3S,3aR,6S,6aS)-6-(4-Fluoro-phenoxy)-hexahydro-furo[3,2-b]furan-3-yl]-3-[(S)-1-(4-methoxy-phenyl)-ethyl]-urea], the IC50 rises from 38 nM to 66 nM (1.7-fold). The first is the more potent here.

`C[C@H](NC(=O)N[C@H]1CO[C@H]2[C@@H]1OC[C@@H]2Oc1ccc(F)cc1)C1CCCCC1` [Example 156, 1-((S)-1-Cyclohexyl-ethyl)-3-[(3S,3aR,6S,6aS)-6-(4-fluoro-phenoxy)-hexahydro-furo[3,2-b]furan-3-yl]-urea] and `C[C@@H](NC(=O)N[C@H]1CO[C@H]2[C@@H]1OC[C@@H]2Oc1ccc(F)cc1)C1CCCCC1` [Example 165, 1-((R)-1-Cyclohexyl-ethyl)-3-[(3S,3aR,6S,6aS)-6-(4-fluoro-phenoxy)-hexahydro-furo[3,2-b]furan-3-yl]-urea] are within 1.5-fold of each other in IC50: 24 nM for the first, 21 nM for the second.

First: O=C(NC1CCN(C(=O)C(F)(F)F)CC1)N[C@H]1CO[C@H]2[C@@H]1OC[C@@H]2Oc1ccc(F)cc1 [Example 157, 1-[(3S,3aR,6S,6aS)-6-(4-Fluoro-phenoxy)-hexahydro-furo[3,2-b]furan-3-yl]-3-[1-(2,2,2-trifluoro-acetyl)-piperidin-4-yl]-urea]
Second: O=C(NC1CCOCC1)N[C@H]1CO[C@H]2[C@@H]1OC[C@@H]2Oc1ccc(F)cc1 [Example 170, 1-[(3S,3aR,6S,6aS)-6-(4-Fluoro-phenoxy)-hexahydro-furo[3,2-b]furan-3-yl]-3-(tetrahydro-pyran-4-yl)-urea]
The IC50 of the first is 9.4-fold lower: 11 nM for the first, 103 nM for the second. The first is the more potent here.

Compared with `O=C(NC1CCCc2ccccc21)N[C@H]1CO[C@H]2[C@@H]1OC[C@@H]2Oc1ccc(F)cc1` (stereo partly drawn) [Example 158, 1-[(3S,3aR,6S,6aS)-6-(4-Fluoro-phenoxy)-hexahydro-furo[3,2-b]furan-3-yl]-3-(1,2,3,4-tetrahydro-naphthalen-1-yl)-urea], `O=C(N[C@H]1CO[C@H]2[C@@H]1OC[C@@H]2Oc1ccc(F)cc1)N[C@@H]1CCCC[C@H]1OCc1ccccc1` [Example 164, 1-((1R,2R)-2-Benzyloxy-cyclohexyl)-3-[(3S,3aR,6S,6aS)-6-(4-fluoro-phenoxy)-hexahydro-furo[3,2-b]furan-3-yl]-urea] is 18-fold higher in IC50: 27 nM for the first, 487 nM for the second. The first is the more potent here.

First: C[C@@H](NC(=O)N[C@H]1CO[C@H]2[C@@H]1OC[C@@H]2Oc1ccc(F)cc1)c1ccc(F)cc1 [Example 159, 1-[(3S,3aR,6S,6aS)-6-(4-Fluoro-phenoxy)-hexahydro-furo[3,2-b]furan-3-yl]-3-[(R)-1-(4-fluoro-phenyl)-ethyl]-urea]
Second: C[C@H](NC(=O)N[C@H]1CO[C@H]2[C@@H]1OC[C@@H]2Oc1ccc(F)cc1)c1ccc(F)cc1 [Example 160, 1-[(3S,3aR,6S,6aS)-6-(4-Fluoro-phenoxy)-hexahydro-furo[3,2-b]furan-3-yl]-3-[(S)-1-(4-fluoro-phenyl)-ethyl]-urea]
The IC50 of the first is 6.2-fold lower: 5 nM for the first, 31 nM for the second. The first is the more potent here.

Going from `C[C@@H](NC(=O)N[C@H]1CO[C@H]2[C@@H]1OC[C@@H]2Oc1ccc(F)cc1)c1ccccc1` [Example 162, 1-[(3S,3aR,6S,6aS)-6-(4-Fluoro-phenoxy)-hexahydro-furo[3,2-b]furan-3-yl]-3-((R)-1-phenyl-ethyl)-urea] to `C[C@@H](NC(=O)N[C@H]1CO[C@H]2[C@@H]1OC[C@@H]2Oc1ccc(F)cc1)c1ccc(Cl)cc1` [Example 166, 1-[(R)-1-(4-Chloro-phenyl)-ethyl]-3-[(3S,3aR,6S,6aS)-6-(4-fluoro-phenoxy)-hexahydro-furo[3,2-b]furan-3-yl]-urea], the IC50 falls from 39 nM to 18 nM (2.2-fold). The second is the more potent here.

First: COc1ccc([C@@H](C)NC(=O)N[C@H]2CO[C@H]3[C@@H]2OC[C@@H]3Oc2ccc(F)cc2)cc1 [Example 168, 1-[(3S,3aR,6S,6aS)-6-(4-Fluoro-phenoxy)-hexahydro-furo[3,2-b]furan-3-yl]-3-[(R)-1-(4-methoxy-phenyl)-ethyl]-urea]
Second: Cc1ncccc1OC1COC2C(NC(=O)NCc3ccc(F)cc3)COC12 [Example 180, 1-(4-Fluoro-benzyl)-3-[(3S,3aR,6S,-6aS)-6-(2-methyl-pyridin-3-yloxy)-hexahydro-furo[3,2-b]furan-3-yl]-urea]
The IC50 of the first is 9.2-fold lower: 6 nM for the first, 55 nM for the second. The first is the more potent here.

First: O=C(N[C@H]1CO[C@H]2[C@@H]1OC[C@@H]2Oc1ccc(F)cc1)NC1(c2cccs2)CCOCC1 [Example 169, 1-[(3S,3aR,6S,6aS)-6-(4-Fluoro-phenoxy)-hexahydro-furo[3,2-b]furan-3-yl]-3-(4-thiophen-2-yl-tetrahydro-pyran-4-yl)-urea]
Second: Cc1ncccc1O[C@H]1CO[C@H]2[C@@H]1OC[C@@H]2NC(=O)NCc1ccccn1 [Example 172, 1-[(3S,3aR,6S,6aS)-6-(2-Methyl-pyridin-3-yloxy)-hexahydro-furo[3,2-b]furan-3-yl]-3-pyridin-2-ylmethyl-urea]
The IC50 of the first is 3.6-fold higher: 4460 nM for the first, 1240 nM for the second.

Compared with `Cc1cc(CNC(=O)N[C@H]2CO[C@H]3[C@@H]2OC[C@@H]3Oc2cccnc2C)on1` [Example 171, 1-(3-Methyl-isoxazol-5-ylmethyl)-3-[(3S,3aR,6S,6aS)-6-(2-methyl-pyridin-3-yloxy)-hexahydro-furo[3,2-b]furan-3-yl]-urea], `Cc1ncccc1O[C@H]1CO[C@H]2[C@@H]1OC[C@@H]2NC(=O)NCc1cccnc1` [Example 177, 1-[(3S,3aR,6S,6aS)-6-(2-Methyl-pyridin-3-yloxy)-hexahydro-furo[3,2-b]furan-3-yl]-3-pyridin-3-ylmethyl-urea] is 5.2-fold lower in IC50: 2350 nM for the first, 456 nM for the second.

First: Cc1ncccc1OC1COC2C(NC(=O)NC3CC4CCC3(C)C4(C)C)COC12 [Example 173, 1-[(2R,3aS,5S,6S)-6-(2-Methyl-pyridin-3-yloxy)-hexahydro-furo[3,2-b]furan-3-yl]-3-((1R,2S,4R)-1,7,7-trimethyl-bicyclo[2.2.1]hept-2-yl)-urea]
Second: Cc1ncccc1O[C@H]1CO[C@H]2[C@@H]1OC[C@@H]2NC(=O)N[C@@H]1C[C@H](C)CC[C@H]1C(C)C [Example 174, 1-((1R,2S,5R)-2-Isopropyl-5-methyl-cyclohexyl)-3-[(3S,3aR,6S,6aS)-6-(2-methyl-pyridin-3-yloxy)-hexa-hydro-furo[3,2-b]furan-3-yl]-urea]
The IC50 of the first is 6.2-fold lower: 5 nM for the first, 31 nM for the second. The first is the more potent here.

`COCCCNC(=O)NC1COC2C(Oc3cccnc3C)COC12` [Example 175, 1-(3-Methoxy-propyl)-3-[(3S,3aR,-6S,6aS)-6-(2-methyl-pyridin-3-yl-oxy)-hexahydro-furo[3,2-b]furan-3-yl]-urea] and `Cc1ncccc1O[C@H]1CO[C@H]2[C@@H]1OC[C@@H]2NC(=O)NCC1CCCO1` (stereo partly drawn) [Example 176, 1-[(3S,3aR,6S,6aS)-6-(2-Methyl-pyridin-3-yloxy)-hexahydro-furo[3,2-b]furan-3-yl]-3-(tetrahydro-furan-2-ylmethyl)-urea] are within 1.5-fold of each other in IC50: 975 nM for the first, 1450 nM for the second.

Going from `Cc1ncccc1O[C@H]1CO[C@H]2[C@@H]1OC[C@@H]2NC(=O)NC[C@H]1C[C@H]2C[C@@H]([C@@H]1C)C2(C)C` [Example 178, 1-[(3S,3aR,6S,6aS)-6-(2-Methyl-pyridin-3-yloxy)-hexahydro-furo[3,2-b]furan-3-yl]-3-((1S,2S,3S,5R)-2,6,6-trimethyl-bicyclo[3.1.1]hept-3-ylmethyl)-urea] to `Cc1ncccc1O[C@H]1CO[C@H]2[C@@H]1OC[C@@H]2NC(=O)N[C@H]1C[C@@H]2CC[C@H]1C2` [Example 181, 1-(1S,2S,4R)-Bicyclo[2.2.1]hept-2-yl-3-[(3S,3aR,6S,6aS)-6-(2-methyl-pyridin-3-yloxy)-hexahydro-furo[3,2-b]furan-3-yl]-urea], the IC50 falls from 5 nM to 1 nM (5-fold).

For `Cc1ncccc1O[C@H]1CO[C@H]2[C@@H]1OC[C@@H]2NC(=O)NCc1ccccc1OC(F)(F)F` [Example 179, 1-[(3S,3aR,6S,6aS)-6-(2-Methyl-pyridin-3-yloxy)-hexahydro-furo[3,2-b]furan-3-yl]-3-(2-trifluoromethoxy-benzyl)-urea], the IC50 was < 1 nM.

Reference: patent US9540391B2, “Isomannide derivatives as inhibitors of soluble epoxide hydrolase” (SANOFI, priority 2013, dated 2017)
